Reference: patent US8975401B2, “Quinazoline based EGFR inhibitors containing a zinc binding moiety” (Curis, Inc., priority 2006, dated 2015)

Target: T1, human EGFR (His672-Ala1210) (Homo sapiens, UniProt P00533)
T1 construct: human EGFR (His672-Ala1210); GST (N); purchased Cell Signaling Technologies; host or cells: baculovirus expression system
Test: HTScan EGF Receptor Kinase Assay
Format: biochemical
Protocol: The ability of compounds to inhibit receptor kinase (EGFR) activity was assayed using HTSCAN™ EGF Receptor Kinase Assay Kits (Cell Signaling Technologies, Danvers, Mass.). […] The protein was purified by one-step affinity chromatography using glutathione-agarose.
Immediately transfer enzyme from −80° C. to ice. Allowed enzyme to thaw on ice. […] Returned immediately to ice. […] Incubated reaction plate at room temperature for 30 minutes. […] Added 100 μl/well primary antibody. Incubated at room temperature for 60 minutes. […] Added 100 μl/well diluted antibody. Incubated at room temperature for 30 minutes. […] Incubated at room temperature for 5 minutes.

T1 sequence (P00533 672-1210): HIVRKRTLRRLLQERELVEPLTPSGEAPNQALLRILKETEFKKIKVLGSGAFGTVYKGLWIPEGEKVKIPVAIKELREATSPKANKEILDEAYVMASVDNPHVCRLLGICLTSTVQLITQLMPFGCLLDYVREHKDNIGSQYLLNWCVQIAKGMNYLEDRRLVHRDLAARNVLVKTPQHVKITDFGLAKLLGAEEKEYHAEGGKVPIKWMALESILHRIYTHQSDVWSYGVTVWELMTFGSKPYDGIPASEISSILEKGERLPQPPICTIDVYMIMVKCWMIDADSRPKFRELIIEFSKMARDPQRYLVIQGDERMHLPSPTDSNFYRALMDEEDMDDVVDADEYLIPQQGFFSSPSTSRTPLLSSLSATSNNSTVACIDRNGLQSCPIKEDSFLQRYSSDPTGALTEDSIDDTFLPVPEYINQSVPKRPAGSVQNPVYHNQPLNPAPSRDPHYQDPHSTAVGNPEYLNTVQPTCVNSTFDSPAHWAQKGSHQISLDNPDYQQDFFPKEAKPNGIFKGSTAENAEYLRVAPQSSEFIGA

SMILES	IC50 [nM]
COCCOc1cc2ncnc(Nc3ccc(F)c(Cl)c3)c2cc1OCCCCCCC(=O)NO [Compound 30, 7-(4-(3-Chloro-4-fluorophenylamino)-7-(2-methoxyethoxy)quinazolin-6-yloxy)-N-hydroxyheptanamide]	< 100
O=C(CCCCCCOc1ccc2ncnc(Nc3ccc(F)c(Cl)c3)c2c1)NO [Compound 18, 7-(4-(3-chloro-4-fluorophenylamino)quinazolin-6-yloxy)-N-hydroxyheptanamide]	< 100
COc1cc2ncnc(Nc3ccc(F)c(Cl)c3)c2cc1OCCCCCC(=O)NO [Compound 5]	< 100
COc1cc2ncnc(Nc3ccc(F)c(Cl)c3)c2cc1NC(=O)Nc1ccc(C(=O)NO)cc1 [Compound 93]	< 100
C#Cc1cccc(Nc2ncnc3cc(OC)c(OCCCC(=O)NO)cc23)c1 [Compound 9, 4-(4-(3-ethynylphenylamino)-7-methoxyquinazolin-6-yloxy)-N-hydroxybutanamide]	< 100
C#Cc1cccc(Nc2ncnc3ccc(OCC(=O)NO)cc23)c1 [Compound 19, 2-(4-(3-ethynylphenylamino)quinazolin-6-yloxy)-N-hydroxyacetamide]	< 100
C#Cc1cccc(Nc2ncnc3cc(OC)c(OCC(=O)NO)cc23)c1 [Compound 7, 2-(4-(3-ethynylphenylamino)-7-methoxyquinazolin-6-yloxy)-N-hydroxyacetamide]	< 100
Nc1cc(Br)ccc1NC(=O)COc1ccc2ncnc(Nc3ccc(F)c(Cl)c3)c2c1 [Compound 45]	100 to 1000
COc1cc2ncnc(NCc3ccc(F)c(Cl)c3)c2cc1OCCCCCCC(=O)NO [Compound 88, 7-(4-(3-chloro-4-fluorobenzylamino)-7-methoxyquinazolin-6-yloxy)-N-hydroxyheptanamide]	< 100
COc1cc2ncnc(Nc3ccc(F)c(Cl)c3)c2cc1OCC(=O)NO [Compound 1, 2-(4-(3-Chloro-4-fluorophenylamino)-7-methoxyquinazolin-6-yloxy)-N-hydroxyacetamide]	< 100
C#Cc1cccc(Nc2ncnc3cc(OC)c(NC(=O)CCCC(=O)NO)cc23)c1 [Compound 42, N^1-(4-(3-ethynylphenylamino)-7-methoxyquinazolin-6-yl)-N^5-hydroxyglutaramide]	< 100
C#Cc1cc(Nc2ncnc3cc(OCCOC)c(OCCCCCCC(=O)NO)cc23)ccc1F [Compound 76]	< 100
C#Cc1cccc(Nc2ncnc3cc(OCCOC)c(OCCCCCCC(=O)NO)cc23)c1 [Compound 36, 7-(4-(3-Ethynylphenylamino)-7-(2-methoxyethoxy)quinazolin-6-yloxy)-N-hydroxyheptanamide]	< 100
COc1cc2ncnc(NCc3ccc(F)c(F)c3)c2cc1OCCCCCCC(=O)NO [Compound 87, 7-(4-(3,4-difluorobenzylamino)-7-methoxyquinazolin-6-yloxy)-N-hydroxyheptanamide]	100 to 1000
COCCOc1cc2ncnc(Nc3ccc(F)c(Cl)c3)c2cc1NC(=O)CCCCC(=O)NO [Compound 69, N^1-(4-(3-chloro-4-fluorophenylamino)-7-(2-methoxyethoxy)quinazolin-6-yl)-N^6-hydroxyadipamide]	< 100
COc1cc2ncnc(N[C@H](C)c3ccc(F)cc3)c2cc1OCCCCCCC(=O)NO [Compound 81, (R)-7-(4-(1-(4-fluorophenyl)ethylamino)-7-methoxyquinazolin-6-yloxy)-N-hydroxyheptanamide]	100 to 1000
COc1ccc([C@@H](C)Nc2ncnc3cc(OC)c(OCCCCCCC(=O)NO)cc23)cc1 [Compound 83, (R)—N-hydroxy-7-(7-methoxy-4-(1-(4-methoxyphenyl)ethylamino)quinazolin-6-yloxy)-heptanamide]	> 10000
COc1cc2ncnc(Nc3ccc(F)c(Cl)c3)c2cc1OCCOc1ccc(CC(=O)NO)cc1 [Compound 91]	< 100
COc1cc2ncnc(Nc3ccc(F)c(Cl)c3)c2cc1OCCC(=O)NO [Compound 2]	< 100
COc1cc2ncnc(Nc3ccc(F)c(Cl)c3)c2cc1OCCCCC(=O)NO [Compound 4]	< 100
C#Cc1cccc(Nc2ncnc3ccc(OCCCCCC(=O)NO)cc23)c1 [Compound 23, 6-(4-(3-ethynylphenylamino)quinazolin-6-yloxy)-N-hydroxyhexanamide]	100 to 1000
COc1cc2ncnc(N[C@H](C)c3ccc(Cl)cc3)c2cc1OCCCCCCC(=O)NO [Compound 82, (R)-7-(4-(1-(4-chlorophenyl)ethylamino)-7-methoxyquinazolin-6-yloxy)-N-hydroxyheptanamide]	100 to 1000

SMILES	IC50 [nM]
C[C@@H](Nc1ncnc2ccc(OCCCCCC(=O)NO)cc12)c1ccccc1 [Compound 50]	100 to 1000
O=C(CCCCOc1ccc2ncnc(Nc3ccc(F)c(Cl)c3)c2c1)NO [Compound 16, 5-(4-(3-chloro-4-fluorophenylamino)quinazolin-6-yloxy)-N-hydroxypentanamide]	< 100
COc1cc2ncnc(Nc3ccc(F)c(Cl)c3)c2cc1NC(=O)CCCC(=O)NO [Compound 38, N^1-(4-(3-chloro-4-fluorophenylamino)-7-methoxyquinazolin-6-yl)-N^5-hydroxyglutaramide]	< 100
COc1cc2ncnc(Nc3ccc(F)c(Cl)c3)c2cc1OCCCCCCC(=O)N(C)O [Compound 94]	< 100
C#Cc1cccc(Nc2ncnc3cc(OC)c(NC(=O)CCCCC(=O)NO)cc23)c1 [Compound 43, N^1-(4-(3-ethynylphenylamino)-7-methoxyquinazolin-6-yl)-N^6-hydroxyadipamide]	< 100
COc1cc2ncnc(N[C@H](C)c3ccccc3)c2cc1OCCCCCC(=O)NO [Compound 77, (R)—N-hydroxy-6-(7-methoxy-4-(1-phenylethylamino)quinazolin-6-yloxy)-hexanamide]	< 100
O=C(CCCCCOc1ccc2ncnc(Nc3ccc(F)c(Cl)c3)c2c1)NO [Compound 17, 6-(4-(3-chloro-4-fluorophenylamino)quinazolin-6-yloxy)-N-hydroxy hexanamide]	< 100
O=C(CCOc1ccc2ncnc(Nc3ccc(F)c(Cl)c3)c2c1)NO [Compound 14]	< 100
COc1cc2ncnc(Nc3ccc(F)c(Cl)c3)c2cc1OCCCC(=O)NO [Compound 3, 4-(4-(3-Chloro-4-fluorophenylamino)-7-methoxyquinazolin-6-yloxy)-N-hydroxybutanamide]	< 100
COc1cc2ncnc(Nc3ccc(F)c(Cl)c3)c2cc1OCCOc1ccc(/C=C/C(=O)NO)cc1 [Compound 66, (E)-3-(4-(2-(4-(3-chloro-4-fluorophenylamino)-7-methoxyquinazolin-6-yloxy)ethoxy)phenyl)-N-hydroxyacrylamide]	< 100
COCCOc1cc2ncnc(Nc3ccc(F)c(Cl)c3)c2cc1NC(=O)CCCC(=O)NO [Compound 68, N^1-(4-(3-chloro-4-fluorophenylamino)-7-(2-methoxyethoxy)quinazolin-6-yl)-N^5-hydroxyglutaramide]	< 100
C#Cc1cccc(Nc2ncnc3cc(OC)c(OCCCCCC(=O)NO)cc23)c1 [Compound 11, 6-(4-(3-ethynylphenylamino)-7-methoxyquinazolin-6-yloxy)-N-hydroxyhexanamide]	< 100
COc1cc2ncnc(Nc3ccc(F)c(Cl)c3)c2cc1NC(=O)CCCCCCC(=O)NO [Compound 40, N^1-(4-(3-chloro-4-fluorophenylamino)-7-methoxyquinazolin-6-yl)-N^8-hydroxyoctanediamide]	< 100
COc1cc2ncnc(NCc3cccc(Br)c3)c2cc1OCCCCCCC(=O)NO [Compound 89, 7-(4-(3-bromobenzylamino)-7-methoxyquinazolin-6-yloxy)-N-hydroxyheptanamide]	100 to 1000
C#Cc1cccc(Nc2ncnc3cc(OC)c(OCCC(=O)NO)cc23)c1 [Compound 8]	< 100
C#Cc1cccc(Nc2ncnc3ccc(OCCCCC(=O)NO)cc23)c1 [Compound 22]	< 100
C#Cc1cc(Nc2ncnc3cc(OC)c(OCCCCCCC(=O)NO)cc23)ccc1F [Compound 75, 7-(4-(3-ethynyl-4-fluorophenylamino)-7-methoxyquinazolin-6-yloxy)-N-hydroxyheptanamide]	< 100
C#Cc1cccc(Nc2ncnc3cc(OC)c(NC(=O)CCCCCCC(=O)NO)cc23)c1 [Compound 44, N^1-(4-(3-ethynylphenylamino)-7-methoxyquinazolin-6-yl)-N^8-hydroxyoctanediamide]	< 100
COc1cc2ncnc(NCCc3ccccc3)c2cc1OCCCCCCC(=O)NO [Compound 84]	100 to 1000
C#Cc1cccc(Nc2ncnc3ccc(OCCCCCCC(=O)NO)cc23)c1 [Compound 24, 7-(4-(3-ethynylphenylamino)quinazolin-6-yloxy)-N-hydroxyheptanamide]	100 to 1000
C#Cc1cccc(Nc2ncnc3ccc(OCCCC(=O)NO)cc23)c1 [Compound 21, 4-(4-(3-ethynylphenylamino)quinazolin-6-yloxy)-N-hydroxybutanamide]	100 to 1000
O=C(COc1ccc2ncnc(Nc3ccc(F)c(Cl)c3)c2c1)NO [Compound 13, 2-(4-(3-chloro-4-fluorophenylamino)quinazolin-6-yloxy)-N-hydroxyacetamide]	< 100
